The values that follow come from PubChem BioAssay (NCI).

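Briefly, cells in 96-well plates were exposed to five compound concentrations for 48 h, and endpoints were estimated by linear interpolation. At the TGI there is no net growth.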 Some results are limits rather than exact numbers.

Test systems include MDA-MB-435; MOLT-4 leukemia; SK-MEL-2 melanoma; LOX IMVI melanoma; SNB-19 CNS; KM12 colon; NCI-H23 lung; NCI-H226 lung; HOP-92 NSCLC; MCF7 breast; NCI/ADR-RES ovarian; A549 NSCLC.
Holding throughout (assay): NCI-60 cell line screen, 48 h

Consider `S=C1c2cc(Cl)ccc2NC(=NC2CCCC2)C2CSCN12` (stereo not given), for which the TGI with MDA-MB-435, in the assay with MOLT-4 leukemia, with SK-MEL-2 melanoma, in the assay on LOX IMVI melanoma, in the assay on SNB-19 CNS and with KM12 colon was more than 100 µM each time. Moreover, the TGI in the assay with NCI-H23 lung, in the assay with NCI-H226 lung, with HOP-92 NSCLC, in the assay with MCF7 breast, with NCI/ADR-RES ovarian and with A549 NSCLC was more than 100 µM in each case.

`CCCCc1ccc(N2C(=O)c3cc(C)cnc3S2(=O)=O)cc1`: the TGI with MDA-MB-435, in the assay with MOLT-4 leukemia, with SK-MEL-2 melanoma, in the assay with LOX IMVI melanoma, with SNB-19 CNS and in the assay on KM12 colon was more than 100 µM in each case. The TGI in the assay with NCI-H23 lung, in the assay with NCI-H226 lung, in the assay with HOP-92 NSCLC, in the assay on MCF7 breast, in the assay with NCI/ADR-RES ovarian and in the assay on A549 NSCLC was more than 100 µM throughout.

As for `Cc1nc2c(=O)[nH]c(=O)nc-2n(CCO)c1C`, the TGI in the assay on MDA-MB-435, with MOLT-4 leukemia, with SK-MEL-2 melanoma, in the assay on LOX IMVI melanoma, with SNB-19 CNS and in the assay with KM12 colon was more than 100 µM throughout. In addition, the TGI in the assay on NCI-H23 lung, in the assay with NCI-H226 lung, in the assay with HOP-92 NSCLC, with MCF7 breast, with NCI/ADR-RES ovarian and in the assay on A549 NSCLC was more than 100 µM each time.

Consider `CC(C)(C)[C@@H]1NC(=O)CN1C(=O)OCc1ccccc1`, for which the TGI in the assay on MDA-MB-435, in the assay with MOLT-4 leukemia, in the assay on SK-MEL-2 melanoma, in the assay on LOX IMVI melanoma, with SNB-19 CNS and in the assay on KM12 colon was more than 100 µM in each case. In addition, the TGI in the assay with NCI-H23 lung, in the assay on NCI-H226 lung, with HOP-92 NSCLC, in the assay with MCF7 breast, with NCI/ADR-RES ovarian and in the assay with A549 NSCLC was more than 100 µM in each case.

In the case of `CCOC(=O)C1(C(=O)OCC)C[C@H]2CON=C2[C@@H]1c1ccc(C(F)(F)F)cc1`, the TGI with MDA-MB-435 was more than 100 µM; in the assay on MOLT-4 leukemia, more than 100 µM; in the assay on SK-MEL-2 melanoma, more than 100 µM; with LOX IMVI melanoma it was 32.4 µM; in the assay with SNB-19 CNS it was more than 100 µM; in the assay with KM12 colon, more than 100 µM. Also, the TGI with NCI-H23 lung, in the assay with NCI-H226 lung, in the assay on HOP-92 NSCLC, in the assay on MCF7 breast, in the assay on NCI/ADR-RES ovarian and with A549 NSCLC was more than 100 µM in each case.

On to `CC(=O)C1=CC=C/C1=N\Nc1ccccc1`, for which the TGI with MDA-MB-435 was 27.4 µM; in the assay with MOLT-4 leukemia it was 29.6 µM; with SK-MEL-2 melanoma, 27.7 µM; with LOX IMVI melanoma it was 9.02 µM; with SNB-19 CNS, 47.6 µM; in the assay with KM12 colon, 15.5 µM. In addition, the TGI in the assay with NCI-H23 lung is 26.6 µM; in the assay with NCI-H226 lung, 39.8 µM; in the assay with HOP-92 NSCLC, 27.3 µM; in the assay on MCF7 breast, 5.68 µM; in the assay on NCI/ADR-RES ovarian, more than 100 µM; in the assay with A549 NSCLC it was 35.1 µM.

With `c1ccc(COc2nc3ccc(C45CC6CC(CC(C6)C4)C5)cc3[nH]2)cc1`, the TGI in the assay with MDA-MB-435 was more than 94 µM; in the assay with MOLT-4 leukemia it was more than 66.7 µM; in the assay on SK-MEL-2 melanoma it was 52.6 µM; in the assay on LOX IMVI melanoma it was 36.5 µM; with SNB-19 CNS it was more than 100 µM; in the assay with KM12 colon it was more than 100 µM. In addition, the TGI in the assay with NCI-H23 lung was more than 56.6 µM; in the assay on NCI-H226 lung, 46.2 µM; in the assay on HOP-92 NSCLC, 49.8 µM; in the assay with MCF7 breast, more than 100 µM; in the assay on NCI/ADR-RES ovarian it was more than 54.4 µM; in the assay on A549 NSCLC it was more than 100 µM.

Consider `Cn1c2ccccc2n2c(=O)c(-c3ccc(O)cc3)nnc12`, for which the TGI in the assay with MDA-MB-435, with MOLT-4 leukemia, with SK-MEL-2 melanoma, with LOX IMVI melanoma, with SNB-19 CNS and with KM12 colon was more than 100 µM throughout. The TGI in the assay with NCI-H23 lung, in the assay on NCI-H226 lung, with HOP-92 NSCLC, with MCF7 breast, in the assay with NCI/ADR-RES ovarian and with A549 NSCLC was more than 100 µM each time.

As to `COC(=O)c1nc2c(C)c(O)c(O)c([C@H](C)CCC=C(C)C)c2o1`, the TGI in the assay on MDA-MB-435 is more than 100 µM; in the assay with MOLT-4 leukemia, more than 100 µM; in the assay with SK-MEL-2 melanoma it was 59.7 µM; in the assay on LOX IMVI melanoma, more than 100 µM; with SNB-19 CNS it was more than 100 µM; with KM12 colon it was 67.4 µM. Moreover, the TGI is 89.8 µM in the assay on NCI-H23 lung; 34.2 µM in the assay on NCI-H226 lung; 66.7 µM in the assay on HOP-92 NSCLC; more than 100 µM in the assay on MCF7 breast; more than 100 µM in the assay with NCI/ADR-RES ovarian; 57.1 µM in the assay on A549 NSCLC.

Regarding `Cc1cc(SCC(=O)c2ccc(Br)cc2)cc(C)[o+]1`, the TGI in the assay on MDA-MB-435 is 51.3 µM; with MOLT-4 leukemia, 56.2 µM; with SK-MEL-2 melanoma, 76 µM; with LOX IMVI melanoma, more than 100 µM; in the assay on SNB-19 CNS it was more than 100 µM; in the assay on KM12 colon, 62.6 µM. Moreover, the TGI was more than 100 µM in the assay with NCI-H23 lung; 95.5 µM in the assay with NCI-H226 lung; 74.8 µM with HOP-92 NSCLC; 38.2 µM in the assay on MCF7 breast; 88.3 µM with NCI/ADR-RES ovarian; more than 100 µM in the assay with A549 NSCLC.
